Structures can show the parent of a compound that is named as a salt.

What all share (format): biochemical
Assay [1] has as its target recombinant human enteropeptidase (Homo sapiens (Human), UniProt P98073). The assay is described as follows: Measurement of enteropeptidase inhibitory activity. The conditions noted are these: substrate Gly-Asp-Asp-Asp-Asp-Lys-β-Naphtylamide, Tris-HCl pH 8.0, Dixon plot. The method, then: Measurement of Enteropeptidase Inhibitory Activity
Using a 96 well plate (#3915, Costar), a test compound (25 μL), 400 mM Tris-HCl buffer (pH 8.0, 25 μL) and 0.5 mg/mL fluorescence enzyme substrate (Gly-Asp-Asp-Asp-Asp-Lys-β-Naphtylamide, 25 μL) were mixed, and recombinant human enteropeptidase (R&D Systems, Inc., 25 μL) was added. Using a fluorescence plate reader fmax (Molecular Devices, Inc.), the reaction rate was measured from the time-course changes at excitation wavelength 320 nm and fluorescence wavelength 405 nm. The Ki value was calculated from the concentration of the test compound, reciprocal of reaction rate, and Km value of the enzyme substrate, and by using Dixon plot.

Assay [2] deals with human trypsin. The assay is described as follows: Measurement of trypsin inhibitory activity. The conditions noted are these: substrate Boc-Phe-Ser-Arg-AMC, Tris-HCl pH 8.0, Dixon plot. The method, then: (§1) Measurement of Trypsin Inhibitory Activity
(§2) Using a 96 well plate (#3915, Costar), a test compound (25 μL) was mixed with 20 μM fluorescence enzyme substrate (Boc-Phe-Ser-Arg-AMC, 50 μL) mixed with 200 mM Tris-HCl buffer (pH 8.0), and human trypsin (Sigma, 25 μL) was added. Using a fluorescence plate reader fmax (Molecular Devices, Inc.), the reaction rate was measured from the time-course changes at excitation wavelength 355 nm and fluorescence wavelength 460 nm. The Ki value was calculated from the concentration of the test compound, reciprocal of reaction rate, and Km value of the enzyme substrate, and by using Dixon plot.

Assay [3] has as its target human trypsin (Homo sapiens, UniProt P07477). The assay is described as follows: Measurement of trypsin inhibitory activity. The settings on record: substrate Boc-Phe-Ser-Arg-AMC, Tris-HCl pH 8.0, Dixon plot. The method, then: as §1, §2

recombinant human enteropeptidase, sequence (P98073 whole entry): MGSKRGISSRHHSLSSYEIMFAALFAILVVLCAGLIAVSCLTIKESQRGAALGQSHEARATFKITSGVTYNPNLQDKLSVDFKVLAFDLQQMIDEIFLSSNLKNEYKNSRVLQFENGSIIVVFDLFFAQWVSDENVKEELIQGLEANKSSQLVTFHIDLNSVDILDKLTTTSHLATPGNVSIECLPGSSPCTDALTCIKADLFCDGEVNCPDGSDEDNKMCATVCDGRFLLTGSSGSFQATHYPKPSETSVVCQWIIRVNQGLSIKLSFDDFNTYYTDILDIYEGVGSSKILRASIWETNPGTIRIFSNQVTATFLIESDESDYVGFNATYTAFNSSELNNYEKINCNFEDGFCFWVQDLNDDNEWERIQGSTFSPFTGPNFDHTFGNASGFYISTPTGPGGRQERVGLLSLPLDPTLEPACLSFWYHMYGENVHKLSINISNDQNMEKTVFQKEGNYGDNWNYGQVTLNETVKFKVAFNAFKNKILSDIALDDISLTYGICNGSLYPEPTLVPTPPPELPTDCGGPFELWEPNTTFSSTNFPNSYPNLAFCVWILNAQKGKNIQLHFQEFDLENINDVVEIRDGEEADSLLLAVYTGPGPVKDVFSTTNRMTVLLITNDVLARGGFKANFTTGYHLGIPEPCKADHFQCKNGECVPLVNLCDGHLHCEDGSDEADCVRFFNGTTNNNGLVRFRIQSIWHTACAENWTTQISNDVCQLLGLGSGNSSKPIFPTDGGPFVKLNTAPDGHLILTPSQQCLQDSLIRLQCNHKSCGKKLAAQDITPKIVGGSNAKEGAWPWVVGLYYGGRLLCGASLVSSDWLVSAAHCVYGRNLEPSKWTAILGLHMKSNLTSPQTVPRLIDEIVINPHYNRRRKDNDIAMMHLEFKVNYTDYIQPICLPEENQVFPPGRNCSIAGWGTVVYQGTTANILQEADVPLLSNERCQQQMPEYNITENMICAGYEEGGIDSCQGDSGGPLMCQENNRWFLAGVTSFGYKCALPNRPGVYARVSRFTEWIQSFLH

`CC(C)(Cc1ccc(C(=O)Oc2ccc(C(=N)N)cc2F)s1)C(=O)NCC(=O)O` [Compound 3]: the Ki in assay [1] was 0.29 nM; on human trypsin [2] it was 0.42 nM.

For the compound `CCCN(CC(=O)O)C(=O)C(C)(C)Cc1ccc(C(=O)Oc2ccc(C(=N)N)cc2F)s1` [Compound 10, N-{3-[5-(4-amidino-2-fluoro-phenoxycarbonyl)thiophen-2-yl]-2,2-dimethylpropionyl}-N-propylglycine hydrochloride], the inhibitory constant (Ki) turned out to be 0.49 nM in assay [1] and 1.5 nM on human trypsin [2].

On to `CCC(CC)(Cc1ccc(C(=O)Oc2ccc(C(=N)N)cc2F)s1)C(=O)N[C@H](C(=O)O)C(C)C` [Compound 13], for which the Ki in assay [1] came to 1.56 nM; on human trypsin [2], 5.18 nM.

For `CCC(CC)(Cc1ccc(C(=O)Oc2ccc(C(=N)N)cc2F)s1)C(=O)N[C@@H](Cc1ccccc1)C(=O)O` [Compound 16], the inhibition constant Ki in assay [1] came to 1.1 nM; at human trypsin [2], 8.3 nM.

`C=CCN(CCS(=O)(=O)O)C(=O)C(C)(C)Cc1ccc(C(=O)Oc2ccc(C(=N)N)cc2F)s1` [Compound 23, N-allyl-N-{3-[5-(4-amidino-2-fluoro-phenoxycarbonyl)-thiophen-2-yl]-2,2-dimethylpropionyl}taurine]: the figures for the inhibition constant (Ki) (in assay [1]; on human trypsin [2]) were 1.81 nM and 3.17 nM, respectively.

Turning to `CC[C@H](NC(=O)C(CC)(CC)Cc1ccc(C(=O)Oc2ccc(C(=N)N)cc2F)s1)C(=O)O` [Compound 28], the Ki in assay [1] is 0.65 nM; at human trypsin [2], 1.93 nM.

On to `CCC[C@H](NC(=O)C(CC)(CC)Cc1ccc(C(=O)Oc2ccc(C(=N)N)cc2F)s1)C(=O)O` [Compound 29], for which the inhibition constant Ki in assay [1] was 1.18 nM; at human trypsin [2] it was 3.84 nM.

For the compound `CCC(CC)(Cc1ccc(C(=O)Oc2ccc(C(=N)N)cc2F)s1)C(=O)NCCCC(=O)O` [Compound 30], the inhibition constant (Ki) in assay [1] came out at 0.94 nM; on human trypsin [2], 2.73 nM.

Consider `CC(C)(Cc1ccc(C(=O)Oc2ccc(C(=N)N)cc2F)s1)C(=O)Nc1ccc(C(=O)O)cc1` [Compound 31], for which the Ki in assay [1] was 1.08 nM; at human trypsin [2], 2.89 nM.

On to `CC(C)(Cc1ccc(C(=O)Oc2ccc(C(=N)N)cc2F)s1)C(=O)Nc1cccc(C(=O)O)c1` [Compound 32], for which the values for the Ki (in assay [1]; on human trypsin [2]) were 1.43 nM and 0.7 nM, respectively.

Consider `CCC(CC)(Cc1ccc(C(=O)Oc2ccc(C(=N)N)cc2F)s1)C(=O)N[C@@H]1COC(=O)C1` [Compound 34], for which the inhibition constant Ki in assay [1] is 2.56 nM; on human trypsin [2] it was 2.73 nM.

In the case of `CC(C)(Cc1ccc(C(=O)Oc2ccc(C(=N)N)cc2F)s1)C(=O)N1CCC[C@H]1CC(=O)O` [Compound 41], the results for the inhibitory constant (Ki) (in assay [1]; on human trypsin [2]) were 1.58 nM and 3.88 nM, respectively.

Turning to `CCC(CC)(Cc1ccc(C(=O)Oc2ccc(C(=N)N)cc2F)s1)C(=O)N[C@H](CCC(=O)O)C(=O)O` [Compound 43], the inhibition constant Ki is 0.42 nM in assay [1] and 1.96 nM on human trypsin [2].

Take `CCC(CC)(Cc1ccc(C(=O)Oc2ccc(C(=N)N)cc2F)s1)C(=O)N[C@@H](CC(N)=O)C(=O)O` [Compound 44]: the results for the inhibitory constant (Ki) (in assay [1]; at human trypsin [2]) were 0.67 nM and 1.69 nM, respectively.

Consider `CC(C)(Cc1ccc(C(=O)Oc2ccc(C(=N)N)cc2F)s1)C(=O)Nc1ccc(O)c(C(=O)O)c1` [Compound 47], for which the Ki is 0.53 nM in assay [1] and 0.92 nM at human trypsin [2].

Regarding `CC[C@H](C)[C@@H](CC(=O)O)NC(=O)C(CC)(CC)Cc1ccc(C(=O)Oc2ccc(C(=N)N)cc2F)s1` [Compound 49, N-{3-[5-(4-amidino-2-fluoro-phenoxycarbonyl)thiophen-2-yl]-2,2-diethylpropionyl}-beta-homoisoleucine hydrochloride], the results for the Ki (in assay [1]; at human trypsin [2]) were 3.26 nM and 1.97 nM, respectively.

Take `CCC(CC)(Cc1ccc(C(=O)Oc2ccc(C(=N)N)cc2F)s1)C(=O)NCc1ccc(C(=O)O)cc1` [Compound 53]: the values for the Ki (in assay [1]; on human trypsin [2]) were 2.69 nM and 9.27 nM, respectively.

Regarding `CC(C)(Cc1ccc(C(=O)Oc2ccc(C(=N)N)cc2F)s1)C(=O)NC1(C(=O)O)CCC1` [Compound 56], the inhibitory constant (Ki) in assay [1] came to 0.51 nM; at human trypsin [2], 1.49 nM.

For `CC(C)(Cc1ccc(C(=O)Oc2ccc(C(=N)N)cc2F)s1)C(=O)NC1(C(=O)O)CC1` [Compound 57], the figures for the inhibition constant (Ki) (in assay [1]; on human trypsin [2]) were 0.67 nM and 1.01 nM, respectively.

Consider `CCC(CC)(Cc1ccc(C(=O)Oc2ccc(C(=N)N)cc2F)s1)C(=O)NCCCCC(=O)O` [Compound 62], for which the inhibition constant (Ki) in assay [1] was 0.98 nM; on human trypsin [2] it was 5.17 nM.

In the case of `CC(C)(Cc1ccc(C(=O)Oc2ccc(C(=N)N)cc2F)s1)C(=O)NCCC#N` [Compound 63], the inhibition constant Ki in assay [1] was 2.9 nM; on human trypsin [2] it was 3.65 nM.

With `CC(C)(Cc1ccc(C(=O)Oc2ccc(C(=N)N)cc2F)s1)C(=O)NCc1nnn[nH]1` [Compound 65], the inhibitory constant (Ki) in assay [1] amounted to 0.53 nM; at human trypsin [2] it was 0.75 nM.

In the case of `CC(C)(Cc1ccc(C(=O)Oc2ccc(C(=N)N)cc2F)s1)C(=O)Nc1ccc(C(=O)O)c(C(=O)O)c1` [Compound 68], the Ki is 0.24 nM in assay [1] and 0.21 nM on human trypsin [3].

In the case of `CC(C)(Cc1ccc(C(=O)Oc2ccc(C(=N)N)cc2F)s1)C(=O)N[C@@H](C(=O)O)c1ccc(O)cc1` [Compound 69], the Ki in assay [1] stood at 0.72 nM; on human trypsin [3], 1.14 nM.

Consider `CC(C)(Cc1ccc(C(=O)Oc2ccc(C(=N)N)cc2F)s1)C(=O)N[C@H]1CC[C@@H](C(=O)O)CC1` [Compound 70], for which the Ki in assay [1] was determined as 1.11 nM; on human trypsin [3] it was 1.7 nM.

As to `CCC(CC)(Cc1ccc(C(=O)Oc2ccc(C(=N)N)cc2F)s1)C(=O)NCCCCCC(=O)O` [Compound 71], the Ki worked out at 4.97 nM in assay [1] and 8.01 nM at human trypsin [3].

Consider `CC(C)(Cc1ccc(C(=O)Oc2ccc(C(=N)N)cc2F)s1)C(=O)N1CC(C(=O)O)C1` [Compound 72], for which the inhibitory constant (Ki) came out at 0.63 nM in assay [1] and 1.85 nM at human trypsin [3].

Regarding `CC(C)(Cc1ccc(C(=O)Oc2ccc(C(=N)N)cc2F)s1)C(=O)Nc1ccccc1C(=O)O` [Compound 73], the Ki in assay [1] was determined as 2.41 nM; at human trypsin [3], 3.65 nM.

Turning to `CC(C)(Cc1ccc(C(=O)Oc2ccc(C(=N)N)cc2F)s1)C(=O)Nc1cc(C(=O)O)ccc1C(=O)O` [Compound 75], the Ki is 0.39 nM in assay [1] and 3.72 nM on human trypsin [3].

In the case of `CC(C)(Cc1ccc(C(=O)Oc2ccc(C(=N)N)cc2F)s1)C(=O)N(CC(=O)O)CC1CC1` [Compound 76], the figures for the Ki (in assay [1]; on human trypsin [2]) were 0.67 nM and 2.01 nM, respectively.

As for `CCC(CC)(Cc1ccc(C(=O)Oc2ccc(C(=N)N)cc2F)s1)C(=O)NCC(=O)NCC(=O)O` [Compound 77], the inhibitory constant (Ki) is 0.69 nM in assay [1] and 1.42 nM at human trypsin [2].

`CC(C)(Cc1ccc(C(=O)Oc2ccc(C(=N)N)cc2F)s1)C(=O)N[C@H]1CC[C@H](C(=O)O)CC1` [Compound 78]: the inhibition constant (Ki) came to 1.53 nM in assay [1] and 2.57 nM at human trypsin [3].

As for `CCC(CC)(Cc1ccc(C(=O)Oc2ccc(C(=N)N)cc2F)s1)C(=O)NC1(C(=O)O)CC1` [Compound 79], the Ki is 1.12 nM in assay [1] and 2.19 nM at human trypsin [3].

`CCC(CC)(Cc1ccc(C(=O)Oc2ccc(C(=N)N)cc2F)s1)C(=O)NC1(C(=O)O)CCC1` [Compound 80]: the inhibition constant Ki worked out at 1.33 nM in assay [1] and 4.67 nM at human trypsin [2].

Turning to `CCC(CC)(Cc1ccc(C(=O)Oc2ccc(C(=N)N)cc2F)s1)C(=O)NCc1nnn[nH]1` [Compound 81], the Ki in assay [1] came out at 1.2 nM; on human trypsin [2], 3.54 nM.

Values taken from patent publication US9024044B2, “Heteroarylcarboxylic acid ester derivative” (Ajinomoto Co., Inc., priority 2012, dated 2015).
